Data published in US20260001914A1, “MACROCYCLIC PEPTIDES TARGETING KRAS” (Merck Sharp & Dohme LLC, priority 2022, published 2026).
*1 amine or outer side, *2 acyl side, *3 side chain or, on linkers, in order; H or OH if unused. Where a SMILES comes first, the peptide text is derived from it. Bridges are numbered along the chain shown (N, C = ends). [ ]: non-standard residue; d: D form. Phe(4-guanidino) = N=C(N)Nc1ccc(C[C@H](N)C(=O)O)cc1; Ala(pyrimidin-5-yl) = N[C@@H](Cc1cncnc1)C(=O)O; NMePhe(3-Me) = CN[C@@H](Cc1cccc(C)c1)C(=O)O; Lys(N3) = [N-]=[N+]=NCCCC[C@H](N)C(=O)O; X15 = O=C([C@H](Cc1cnccc1F)N[*:1])[*:2]; X46 = O=C([C@H](Cc1cccnc1F)N[*:1])[*:2]; Phe(4-F) = N[C@@H](Cc1ccc(F)cc1)C(=O)O; X32 = CS(=O)(=O)CCCN(CC(=O)[*:2])[*:1]; NHCH2CH2SCH2CO = O=C(CSCCN[*:1])[*:2]; Ala(cPent) = N[C@@H](CC1CCCC1)C(=O)O; Phe(2-F) = N[C@@H](Cc1ccccc1F)C(=O)O; NMe3Pal = CN[C@@H](Cc1cccnc1)C(=O)O; X1 = O=C(C12CC(CN[*:1])(C1)C2)[*:2]; NMeR = CN[C@@H](CCCNC(=N)N)C(=O)O; Ala(cPr) = N[C@@H](CC1CC1)C(=O)O; NMeF = CN[C@@H](Cc1ccccc1)C(=O)O; PhLac = O=C(O)[C@@H](O)Cc1ccccc1; d3Pal = N[C@H](Cc1cccnc1)C(=O)O; Ahp(2) = CCCCC[C@H](N)C(=O)O; Cba = N[C@@H](CC1CCC1)C(=O)O; NMeNle = CCCC[C@H](NC)C(=O)O; hLeu = CC(C)CC[C@H](N)C(=O)O; αMeC = C[C@](N)(CS)C(=O)O; NMeA = CN[C@@H](C)C(=O)O; Nle = CCCC[C@H](N)C(=O)O

Biological target: KRAS-G12D protein (Homo sapiens, UniProt P01116, G12D)
Sequence (P01116 1-188 isoform P01116-2 G12D): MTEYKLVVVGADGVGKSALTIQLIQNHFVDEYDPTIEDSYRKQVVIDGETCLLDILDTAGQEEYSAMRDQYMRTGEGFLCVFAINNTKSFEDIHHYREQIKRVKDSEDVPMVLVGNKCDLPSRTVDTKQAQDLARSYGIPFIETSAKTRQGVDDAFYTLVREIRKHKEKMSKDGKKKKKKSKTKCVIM
Experiment: SOS-mediated nucleotide exchange assay (BODIPY-GDP / Tb-streptavidin TR-FRET)
Type: biochemical

Row | Compound | EC50 [nM]
1 | CCCC[C@@H]1NC(=O)[C@H](CCCCN=[N+]=[N-])NC(=O)[C@H](CCCNC(=N)N)NC(=O)[C@H](Cc2ccc(F)cc2)NC(=O)CSCCNC(=O)[C@H](Cc2ccccc2)N(C)C(=O)[C@H](CCCC)NC(=O)[C@H](Cc2ccc(O)cc2)NC1=O [compound 89, cyclo(Phe4F-R-LysN3-Nle-Y-Nle-NMeF-Cysteamine-ClAc)] (cyclo([Lys(N3)][Nle]Y[Nle][NMeF][NHCH2CH2SCH2CO][Phe(4-F)]R)) | 3530
2 | CCCC[C@@H]1NC(=O)[C@H](Cc2ccccc2F)NC(=O)[C@H](CCCC)N(C)C(=O)[C@@H](Cc2cccnc2)NC(=O)[C@H](CCCNC(=N)N)N(C)C(=O)[C@H](Cc2ccccc2)NC(=O)C23CC(CNC(=O)[C@H](Cc4cccnc4)N(C)C1=O)(C2)C3 [compound 109, cyclo(F-NMeR-d3Pal-NMeNle-Phe2F-Nle-NMe3Pal-amBCP)] (cyclo(F[NMeR][d3Pal][NMeNle][Phe(2-F)][Nle][NMe3Pal][X1])) | 1200
3 | Cc1cccc(C[C@H]2C(=O)NCC34CC(C3)(C4)C(=O)O[C@@H](Cc3ccccc3)C(=O)N(C)[C@@H](C)C(=O)N[C@@H](Cc3cncnc3)C(=O)N[C@@H](CC3CC3)C(=O)N[C@@H](Cc3cnccc3F)C(=O)N[C@@H](CCC(C)C)C(=O)N2C)c1 [compound 278, cyclo(FLac-NMeA-PyrimAla-cPrA-3Pal6F-hL-NMePhe3Me-amBCP)] (cyclo([Ala(cPr)][X15][hLeu][NMePhe(3-Me)][X1][PhLac][NMeA][Ala(pyrimidin-5-yl)])) | 2
4 | CCCCC[C@@H]1NC(=O)[C@H](Cc2ccc(OC)cc2)NC(=O)[C@H](CC2CCC2)NC(=O)[C@H](Cc2ccc(NC(=N)N)cc2)NC(=O)CN(CCCS(C)(=O)=O)C(=O)[C@H](Cc2ccccc2)NC(=O)CSC[C@@](C)(C(N)=O)NC(=O)[C@H](Cc2ccccc2)N(C)C1=O [compound 389, cyclo(F-Mspg-Phe4Gn-cBuA-TyrOMe-Ahp-NMeF-aMeCl-ClAc)] ({CH2CO}-F[X32][Phe(4-guanidino)][Cba]Y(Me)[Ahp(2)][NMeF][αMeC]-NH2; thioether N-8) | 441
5 | COc1ccc(C[C@@H]2NC(=O)[C@H](CC3CCC3)NC(=O)[C@H](Cc3cccnc3)NC(=O)[C@H](CCCNC(=N)N)NC(=O)[C@H](Cc3ccccc3)NC(=O)CSC[C@](C)(C(N)=O)NC(=O)[C@@H]3CCCCCCC[C@H](NC2=O)C(=O)N3C)cc1 [SEQ ID NO: 192, cyclo(F-R-3Pal-cBuA-TyrOMe-AheNMeHag-aMeC-C1Ac)] | 127
6 | CCCC[C@@H]1NC(=O)[C@H](Cc2ccc(O)cc2)NC(=O)[C@H](CC(C)C)NC(=O)[C@H](Cc2ccc(O)cc2)NC(=O)[C@H](CCCNC(=N)N)NC(=O)[C@H](Cc2ccccc2)NC(=O)CSCCNC(=O)[C@H](Cc2ccccc2)N(C)C1=O [compound 69, cyclo(F-R-Y-L-Y-Nle-NMeF-Cysteamine-ClAc)] | 1470
7 | CCCC[C@@H]1NC(=O)[C@H](Cc2cccnc2F)NC(=O)[C@H](C)N(C)C(=O)[C@H](Cc2ccccc2)OC(=O)C23CC(CNC(=O)[C@H](Cc4cccnc4)N(C)C(=O)[C@H](CCCC)NC(=O)[C@H](Cc4ccccc4F)NC1=O)(C2)C3 [compound 117, cyclo(FLac-NMeA~3Pal2F-Nle-Phe2F-Nle-NMe3Pal-amBCP)] (cyclo([NMe3Pal][X1][PhLac][NMeA][X46][Nle][Phe(2-F)][Nle])) | 1450
8 | CCCC[C@@H]1NC(=O)[C@H](Cc2ccccc2F)NC(=O)[C@H](CC2CCCC2)NC(=O)[C@H](Cc2cncnc2)NC(=O)[C@H](C)N(C)C(=O)[C@H](Cc2ccccc2)OC(=O)C23CC(CNC(=O)[C@H](Cc4cccnc4)N(C)C1=O)(C2)C3 [compound 126, cyclo(FLac-NMeA-PyrimAla-cPeA-Phe2F-Nle-NMe3Pal-amBCP)] (cyclo([Ala(cPent)][Phe(2-F)][Nle][NMe3Pal][X1][PhLac][NMeA][Ala(pyrimidin-5-yl)])) | 22.3
